Measured values from patent US9040479B2, “HCV NS3 protease inhibitors” (RFS Pharma, LLC, priority 2012, dated 2015).
Where “and” joins values, the source holds several entries; their conditions need not be identical. Identical values can stand only once.

Legend:
[1] = Cytotoxicity assay in CEM cells; format: cell-based; settings: human, CEM (human lymphoblastoid) cells
Protocol: (§1) The toxicity of the compounds was assessed in Vero, human PBM, CEM (human lymphoblastoid), MT-2, and HepG2 cells, as described previously (see Schinazi R. F., Sommadossi J.-P., Saalmann V., Cannon D. L., Xie M.-Y., Hart G. C., Smith G. A. & Hahn E. F. Antimicrob. Agents Chemother. 1990, 34, 1061-67). Cycloheximide was included as positive cytotoxic control, and untreated cells exposed to solvent were included as negative controls. The cytotoxicity IC50 was obtained from the concentration-response curve using the median effective method described previously (see Chou T.-C. & Talalay P. Adv. Enzyme Regul. 1984, 22, 27-55; Belen'kii M. S. & Schinazi R. F. Antiviral Res. 1994, 25, 1-11).

[2] = Cytotoxicity assay in Vero cells; format: cell-based; settings: African green monkey, figure in parentheses not defined
Protocol: as §1

[3] = Cytotoxicity assay in PBM cells; format: cell-based; settings: human, figure in parentheses not defined
Protocol: as §1

[4] = system: Huh 7 Clone B cells (rRNA); assay: HCV replicon assay, cytotoxicity from rRNA Ct values; format: cell-based; settings: for rRNA Ct: single replicates
Protocol: (§2) Following five days incubation (37° C., 5% CO2), total cellular RNA was isolated by using versaGene RNA purification kit from Gentra. Replicon RNA and an internal control (TaqMan rRNA control reagents, Applied Biosystems) were amplified in a single step multiplex Real Time RT-PCR Assay. The antiviral effectiveness of the compounds was calculated by subtracting the threshold RT-PCR cycle of the test compound from the threshold RT-PCR cycle of the no-drug control (ΔCt HCV). A ΔCt of 3.3 equals a 1-log reduction (equal to 90% less starting material) in Replicon RNA levels. The cytotoxicity of the compounds was also calculated by using the ΔCt rRNA values. (2′-Me-C) was used as the control. To determine EC90 and IC50 values^2, ΔCt: values were first converted into fraction of starting material^3 and then were used to calculate the % inhibition. […]

[5] = as above; format: cell-based; settings: human, Huh 7 Clone B cells containing HCV replicon RNA; from rRNA, Huh 7 Clone B cells
Protocol: as §2

[6] = system: HCV replicon RNA in Huh 7 Clone B cells; assay: HCV replicon assay (replicon RNA by real time RT-PCR); format: cell-based; settings: for HCV Ct: single replicates
Protocol: as §2

[7] = system: HepG2 cells; settings: HepG2 cells incubated with 10 μM; cited from earlier work
[8] = Hepatitis C virus, Huh-7, 120 h, HCV replicon, five days incubation

C=C[C@@H]1C[C@]1(NC(=O)[C@@H]1C[C@@H](OC(=O)N2Cc3cccc(F)c3C2)CN1C(=O)[C@@H](NC(=O)C(C)(C)C(F)(F)F)C(C)(C)C)C(=O)NS(=O)(=O)C1CC1 [drawing 11]
IC50 [1]: 85.1 µM | IC50 [2]: ≥ 100 µM | IC50 [3]: > 100 µM

C=C[C@@H]1C[C@]1(NC(=O)[C@@H]1C[C@@H](OC(=O)N2Cc3cccc(F)c3C2)CN1C(=O)[C@@H](NC(=O)C(C)(C)C(F)(F)F)C(C)(C)C)C(=O)NS(=O)(=O)C1CC1 [drawing 12]
DCt rRNA ([4]; 3 nM): −0.8 | rRNA Ct Average ([4]; 3 nM): 19.2 | rRNA Ct ([4]; 3 nM): 19.2 and 19.3 and 18.9 | DCt rRNA ([4]; 10 nM): −0.9 | rRNA Ct Average ([4]; 10 nM): 19.0 | rRNA Ct ([4]; 10 nM): 19.2 and 18.9 and 19.0 | DCt rRNA ([4]; 33 nM): −0.8 | rRNA Ct Average ([4]; 33 nM): 19.1 | rRNA Ct ([4]; 33 nM): 19.2 (2×) and 19.1 | DCt rRNA ([4]; 100 nM): −1.0 | rRNA Ct Average ([4]; 100 nM): 19.0 | rRNA Ct ([4]; 100 nM): 19.0 and 18.8 and 19.2 | inhibition at 0.003 µM ([4]; Homo sapiens, Huh-7, 3 nM, read-out: % inhib. rRNA): -74.8% | inhibition at 0.01 µM ([4]; Homo sapiens, Huh-7, 10 nM, read-out: % inhib. rRNA): -89.1% | inhibition at 0.033 µM ([4]; Homo sapiens, Huh-7, 33 nM, read-out: % inhib. rRNA): -75.6% | inhibition at 0.1 µM ([4]; Homo sapiens, Huh-7, 100 nM, read-out: % inhib. rRNA): -95.2% | CC50 at 5 days [5]: > 100 nM | % Inhit (HCV) ([6]; 3 nM): −33.8% | DCt HCV ([6]; 3 nM): −0.4 | HCV Ct Average ([6]; 3 nM): 22.8 | HCV Ct ([6]; 3 nM): 22.6 (2×) and 23.2 | % Inhit (HCV) ([6]; 10 nM): 91.7% | DCt HCV ([6]; 10 nM): 3.6 | HCV Ct Average ([6]; 10 nM): 26.8 | HCV Ct ([6]; 10 nM): 27.0 and 26.9 and 26.6 | % Inhit (HCV) ([6]; 33 nM): 98.0% | DCt HCV ([6]; 33 nM): 5.7 | HCV Ct Average ([6]; 33 nM): 28.9 | HCV Ct ([6]; 33 nM): 29.2 and 29.1 and 28.4 | % Inhit (HCV) ([6]; 100 nM): 99.4% | DCt HCV ([6]; 100 nM): 7.3 | HCV Ct Average ([6]; 100 nM): 30.5 | HCV Ct ([6]; 100 nM): 30.3 and 30.5 and 30.8 | EC50 [6, 8]: 7.7 nM | EC90 [6, 8]: 9.9 nM

O=c1[nH]c(=O)n([C@@H]2O[C@H](CO)[C@@H](O)[C@@H]2F)cc1I [fialuridine, 1,2′-deoxy-2′-fluoro-1-D-arabinofuranosly-5-iodo-uracil]
morphological changes in mitochondria (electron micrographs) [7]: enlarged mitochondria with morphological changes consistent with mitochondrial dysfunction
